Source: paper PMC5218480 (PLoS ONE, 2017)

Test system: MV-4-11 cells
Experiment: Gene expression microarray analysis (Affymetrix PrimeView) and GSEA
Assay type: cell-based, human
Design: RFU PODN (11730768_x_at) / Fold change /veh PODN (11730768_x_at) / RFU LINC00158 (11744669_a_at) / Fold change /veh LINC00158 (11744669_a_at) / RFU DUSP10 (11751237_a_at) / Fold change /veh DUSP10 (11751237_a_at) / RFU ID3 (11757404_x_at) / Fold change /veh ID3 (11757404_x_at) / RFU PLEKHG5 (11737974_s_at) / Fold change /veh PLEKHG5 (11737974_s_at) / RFU LRRC4B (11730491_at) / Fold change /veh LRRC4B (11730491_at) / RFU GIMAP4 (11747438_a_at) / Fold change /veh GIMAP4 (11747438_a_at) / RFU KRT8 (11758183_x_at) / Fold change /veh KRT8 (11758183_x_at) / RFU CNN1 (11734310_a_at) / Fold change /veh CNN1 (11734310_a_at) / RFU VPS37D (11726825_at) / Fold change /veh VPS37D (11726825_at) / RFU C10orf10 (11716522_x_at) / Fold change /veh C10orf10 (11716522_x_at) / RFU KIR2DL2 /// KIR2DL4 /// KIR2DL5A /// KIR2DL5B /// KIR2DS1 /// KIR2DS2 /// KIR2DS3 /// KIR2DS4 /// KIR3DL3 /// KIR3DL3 /// KIR3DS1 (11738374_at) / Fold change /veh KIR2DL2 /// KIR2DL4 /// KIR2DL5A /// KIR2DL5B /// KIR2DS1 /// KIR2DS2 /// KIR2DS3 /// KIR2DS4 /// KIR3DL3 /// KIR3DL3 /// KIR3DS1 (11738374_at) / RFU C1QL1 (11718748_at) / Fold change /veh C1QL1 (11718748_at) / RFU TMPRSS4 (11747572_a_at) / Fold change /veh TMPRSS4 (11747572_a_at) / RFU HAMP (11756126_x_at) / Fold change /veh HAMP (11756126_x_at) / RFU RNFT2 (11725882_a_at) / Fold change /veh RNFT2 (11725882_a_at) / RFU NR4A2 (11747474_a_at) / Fold change /veh NR4A2 (11747474_a_at) / RFU ABCC12 (11746883_a_at) / Fold change /veh ABCC12 (11746883_a_at) / RFU TMEM136 (11760407_x_at) / Fold change /veh TMEM136 (11760407_x_at) / RFU CLDN22 /// WWC2 (11732394_at) / Fold change /veh CLDN22 /// WWC2 (11732394_at) / RFU HLA-DPB1 (11760878_x_at) / Fold change /veh HLA-DPB1 (11760878_x_at) / RFU SPINT1 (11716480_a_at) / Fold change /veh SPINT1 (11716480_a_at) / RFU GAP43 (11754022_s_at) / Fold change /veh GAP43 (11754022_s_at) / RFU A4GNT (11735810_at) / Fold change /veh A4GNT (11735810_at) / RFU PRB3 (11715151_x_at) / Fold change /veh PRB3 (11715151_x_at) / RFU TUBB4B (11761932_at) / Fold change /veh TUBB4B (11761932_at) / RFU CAPN14 (11732068_a_at) / Fold change /veh CAPN14 (11732068_a_at) / RFU TMCC2 (11721928_a_at) / Fold change /veh TMCC2 (11721928_a_at) / RFU IRGQ (11745062_a_at) / Fold change /veh IRGQ (11745062_a_at) / RFU FAM174B (11720279_a_at) / Fold change /veh FAM174B (11720279_a_at) / RFU TMPRSS4 (11748680_a_at) / Fold change /veh TMPRSS4 (11748680_a_at) / RFU FAM212B (11763350_a_at) / Fold change /veh FAM212B (11763350_a_at) / RFU PLEKHG5 (11743358_a_at) / Fold change /veh PLEKHG5 (11743358_a_at) / RFU ZSCAN30 (11745921_a_at) / Fold change /veh ZSCAN30 (11745921_a_at) / RFU CMKLR1 (11741424_a_at) / Fold change /veh CMKLR1 (11741424_a_at) / RFU LOC101060620 /// MAPK8IP1 (11723275_at) / Fold change /veh LOC101060620 /// MAPK8IP1 (11723275_at) / RFU SPTSSB (11747773_x_at) / Fold change /veh SPTSSB (11747773_x_at) / RFU PRSS12 (11739890_at) / Fold change /veh PRSS12 (11739890_at) / RFU BIN1 (11741810_x_at) / Fold change /veh BIN1 (11741810_x_at) / RFU WNT11 (11732464_a_at) / Fold change /veh WNT11 (11732464_a_at) / RFU C10orf10 (11716521_a_at) / Fold change /veh C10orf10 (11716521_a_at) / RFU C5orf56 (11738089_at) / Fold change /veh C5orf56 (11738089_at) / RFU CYB561 (11721691_x_at) / Fold change /veh CYB561 (11721691_x_at) / RFU ANKRD19P (11752326_a_at) / Fold change /veh ANKRD19P (11752326_a_at) / RFU OR2T12 /// OR2T33 /// OR2T8 (11738714_s_at) / Fold change /veh OR2T12 /// OR2T33 /// OR2T8 (11738714_s_at) / RFU VCAN (11748164_a_at) / Fold change /veh VCAN (11748164_a_at) / RFU JSRP1 (11732532_at) / Fold change /veh JSRP1 (11732532_at) / RFU KRTAP10-11 (11738290_x_at) / Fold change /veh KRTAP10-11 (11738290_x_at) / RFU MYO3A (11730013_a_at) / Fold change /veh MYO3A (11730013_a_at) / RFU EBF3 (11725865_a_at) / Fold change /veh EBF3 (11725865_a_at) / RFU CAMK2N1 (11719241_x_at) / Fold change /veh CAMK2N1 (11719241_x_at) / RFU C5orf56 (11738088_a_at) / Fold change /veh C5orf56 (11738088_a_at) / RFU OLFML3 (11715873_a_at) / Fold change /veh OLFML3 (11715873_a_at) / RFU LOC100653217 /// NTM (11731650_a_at) / Fold change /veh LOC100653217 /// NTM (11731650_a_at) / RFU MAPK11 (11762145_a_at) / Fold change /veh MAPK11 (11762145_a_at) / RFU FIZ1 (11724087_x_at) / Fold change /veh FIZ1 (11724087_x_at) / RFU OASL (11726364_x_at) / Fold change /veh OASL (11726364_x_at) / RFU SOX15 (11748057_x_at) / Fold change /veh SOX15 (11748057_x_at) / RFU CD79A (11719716_a_at) / Fold change /veh CD79A (11719716_a_at) / RFU HIST1H1D (11736915_at) / Fold change /veh HIST1H1D (11736915_at) / RFU CASKIN2 (11723855_a_at) / Fold change /veh CASKIN2 (11723855_a_at) / RFU LOC730098 (11760151_x_at) / Fold change /veh LOC730098 (11760151_x_at) / RFU OR4N2 (11742367_at) / Fold change /veh OR4N2 (11742367_at) / RFU PRRT2 (11749266_a_at) / Fold change /veh PRRT2 (11749266_a_at) / RFU SNX32 (11753110_a_at) / Fold change /veh SNX32 (11753110_a_at) / RFU CDHR5 (11726645_a_at) / Fold change /veh CDHR5 (11726645_a_at) / RFU RCAN1 (11760418_a_at) / Fold change /veh RCAN1 (11760418_a_at) / RFU FAM167A (11723789_a_at) / Fold change /veh FAM167A (11723789_a_at) / RFU FAM26E (11764081_at) / Fold change /veh FAM26E (11764081_at) / RFU ISYNA1 (11749810_s_at) / Fold change /veh ISYNA1 (11749810_s_at) / RFU ACY1 (11761880_at) / Fold change /veh ACY1 (11761880_at) / RFU 11764098_at / Fold change /veh 11764098_at / RFU SAMD14 (11745864_x_at) / Fold change /veh SAMD14 (11745864_x_at) / RFU NPB (11741838_a_at) / Fold change /veh NPB (11741838_a_at) / RFU TMPRSS6 (11731388_a_at) / Fold change /veh TMPRSS6 (11731388_a_at) / RFU KRTAP10-2 (11738614_at) / Fold change /veh KRTAP10-2 (11738614_at) / RFU ARHGAP8 /// PRR5-ARHGAP8 (11727945_x_at) / Fold change /veh ARHGAP8 /// PRR5-ARHGAP8 (11727945_x_at) / RFU KRTAP5-7 /// NADSYN1 (11734609_at) / Fold change /veh KRTAP5-7 /// NADSYN1 (11734609_at) / RFU RASL12 (11751679_a_at) / Fold change /veh RASL12 (11751679_a_at) / RFU CDKN2B (11736163_a_at) / Fold change /veh CDKN2B (11736163_a_at) / RFU PRF1 (11729649_at) / Fold change /veh PRF1 (11729649_at) / RFU, ZNF638 /// ZNF638-IT1 / Fold change vs veh, ZNF638 /// ZNF638-IT1 / RFU, PANK3 / Fold change vs veh, PANK3 / RFU, SH3YL1 / Fold change vs veh, SH3YL1 / RFU, ZEB2 / Fold change vs veh, ZEB2 / RFU, NRIP1 / Fold change vs veh, NRIP1 / RFU, PTTG1IP / Fold change vs veh, PTTG1IP / RFU, CAPN2 / Fold change vs veh, CAPN2 / RFU, MED14 / Fold change vs veh, MED14 / RFU, SNORA58 / Fold change vs veh, SNORA58 / RFU, C1orf63 / Fold change vs veh, C1orf63 / RFU, LRRFIP1 / Fold change vs veh, LRRFIP1 / RFU, NDUFAF7 / Fold change vs veh, NDUFAF7 / RFU, SLC12A2 / Fold change vs veh, SLC12A2 / RFU, IBTK / Fold change vs veh, IBTK / RFU, ESF1 / Fold change vs veh, ESF1 / Fold change vs veh, TMEM50B / RFU, TAOK1 / Fold change vs veh, TAOK1 / RFU, ACBD3 / Fold change vs veh, ACBD3 / RFU, TMA16 / Fold change vs veh, TMA16 / RFU, RWDD3 / Fold change vs veh, RWDD3 / RFU, BCAT1 / Fold change vs veh, BCAT1 / RFU, EDEM3 / Fold change vs veh, EDEM3 / RFU, TMEM33 / Fold change vs veh, TMEM33 / RFU, WDR75 / Fold change vs veh, WDR75 / RFU, AHCTF1 / Fold change vs veh, AHCTF1 / RFU, TFRC / Fold change vs veh, TFRC / RFU, ZDHHC17 / Fold change vs veh, ZDHHC17 / RFU, NOM1 / Fold change vs veh, NOM1 / RFU, ARL8B / Fold change vs veh, ARL8B / RFU, ZBTB11 / Fold change vs veh, ZBTB11 / RFU, TAMM41 / Fold change vs veh, TAMM41 / RFU, KIAA1704 /// LOC100996395 / Fold change vs veh, KIAA1704 /// LOC100996395 / RFU, ING1 / Fold change vs veh, ING1 / RFU, TRMT61B / Fold change vs veh, TRMT61B / RFU, FUBP3 / Fold change vs veh, FUBP3 / RFU, TP53 / Fold change vs veh, TP53 / RFU, TNKS2 / Fold change vs veh, TNKS2 / RFU, ZFP14 / Fold change vs veh, ZFP14 / RFU, ACTR2 / Fold change vs veh, ACTR2 / RFU, PPP3R1 / Fold change vs veh, PPP3R1 / RFU, PIK3R1 / Fold change vs veh, PIK3R1 / RFU, HNRNPA1 / Fold change vs veh, HNRNPA1 / RFU, RNF170 / Fold change vs veh, RNF170 / RFU, ZNF28 / Fold change vs veh, ZNF28 / RFU, RNGTT / Fold change vs veh, RNGTT / RFU, OGT / Fold change vs veh, OGT / RFU, BRD1 / Fold change vs veh, BRD1 / RFU, MARS / Fold change vs veh, MARS / RFU, ZNF655 / Fold change vs veh, ZNF655 / RFU, FAHD1 / Fold change vs veh, FAHD1 / RFU, BDP1 / Fold change vs veh, BDP1 / RFU, LRRCC1 / Fold change vs veh, LRRCC1 / RFU, ARID1A / Fold change vs veh, ARID1A / RFU, ZNF146 / Fold change vs veh, ZNF146 / RFU, ZNF330 / Fold change vs veh, ZNF330 / RFU, GPN3 / Fold change vs veh, GPN3 / RFU, C9orf123 / Fold change vs veh, C9orf123 / RFU, N4BP2L2 / Fold change vs veh, N4BP2L2 / RFU, ARFIP1 / Fold change vs veh, ARFIP1 / RFU, FAM179B / Fold change vs veh, FAM179B / RFU, BCL10 / Fold change vs veh, BCL10 / RFU, UHRF1BP1L / Fold change vs veh, UHRF1BP1L / RFU, BET1 / Fold change vs veh, BET1 / RFU, CNOT2 / Fold change vs veh, CNOT2 / RFU, ZNF268 / Fold change vs veh, ZNF268 / Fold change vs veh, ZNF507 / RFU, DGCR2 / Fold change vs veh, DGCR2 / RFU, WDSUB1 / Fold change vs veh, WDSUB1 / Fold change vs veh, HSP90B1 /// MIR3652 / RFU, ADSS / Fold change vs veh, ADSS / RFU, GK / Fold change vs veh, GK / RFU, ZNF148 / Fold change vs veh, ZNF148 / RFU, TAF9 / Fold change vs veh, TAF9 / RFU, SLC1A5 / Fold change vs veh, SLC1A5 / RFU, SLMO2 / Fold change vs veh, SLMO2 / RFU, ABCC4 / Fold change vs veh, ABCC4 / RFU, LOC101060439 /// RAP1B / Fold change vs veh, LOC101060439 /// RAP1B / RFU, RFX7 / Fold change vs veh, RFX7 / RFU, GTPBP10 / Fold change vs veh, GTPBP10 / RFU, CNEP1R1 / Fold change vs veh, CNEP1R1 / RFU, BIVM-ERCC5 /// ERCC5 / Fold change vs veh, BIVM-ERCC5 /// ERCC5 / RFU, ILF3 / Fold change vs veh, ILF3 / RFU 11762660_at / Fold change /veh 11762660_at / RFU VCAN (11757783_s_at) / Fold change /veh VCAN (11757783_s_at) / RFU DDX43 (11728927_at) / Fold change /veh DDX43 (11728927_at) / RFU KRT8 (11758188_x_at) / Fold change /veh KRT8 (11758188_x_at) / RFU NKD1 (11759106_at) / Fold change /veh NKD1 (11759106_at) / RFU SRD5A1 (11742802_a_at) / Fold change /veh SRD5A1 (11742802_a_at) / RFU TPSAB1 /// TPSB2 (11721975_s_at) / Fold change /veh TPSAB1 /// TPSB2 (11721975_s_at) / RFU GSTM3 (11746129_a_at) / Fold change /veh GSTM3 (11746129_a_at) / RFU IL23R (11737362_x_at) / Fold change /veh IL23R (11737362_x_at) / RFU TMEM51 (11727254_a_at) / Fold change /veh TMEM51 (11727254_a_at) / RFU PIWIL2 (11732686_x_at) / Fold change /veh PIWIL2 (11732686_x_at) / RFU ORM1 (11744905_x_at) / Fold change /veh ORM1 (11744905_x_at) / RFU CCDC152 (11743942_at) / Fold change /veh CCDC152 (11743942_at) / RFU ECM1 (11717891_a_at) / Fold change /veh ECM1 (11717891_a_at) / RFU IL23R (11748794_a_at) / Fold change /veh IL23R (11748794_a_at) / RFU TNFAIP8L3 (11732012_x_at) / Fold change /veh TNFAIP8L3 (11732012_x_at) / RFU MBOAT4 (11741988_at) / Fold change /veh MBOAT4 (11741988_at) / RFU 11764193_at / Fold change /veh 11764193_at / RFU TMEM53 (11763286_at) / Fold change /veh TMEM53 (11763286_at) / RFU MAGEB2 (11727129_at) / Fold change /veh MAGEB2 (11727129_at) / RFU TMEM200A (11744735_a_at) / Fold change /veh TMEM200A (11744735_a_at) / RFU CCDC152 (11751479_a_at) / Fold change /veh CCDC152 (11751479_a_at) / RFU FAM211A (11726209_a_at) / Fold change /veh FAM211A (11726209_a_at) / RFU RGS16 (11746705_a_at) / Fold change /veh RGS16 (11746705_a_at) / RFU VCAN (11755009_s_at) / Fold change /veh VCAN (11755009_s_at) / RFU RHOB (11743442_s_at) / Fold change /veh RHOB (11743442_s_at) / RFU RGS16 (11720943_a_at) / Fold change /veh RGS16 (11720943_a_at) / RFU RGS16 (11720944_at) / Fold change /veh RGS16 (11720944_at) / RFU, VPS4B / Fold change vs veh, VPS4B / RFU, CREB1 / Fold change vs veh, CREB1 / RFU, DNAJC13 / Fold change vs veh, DNAJC13 / RFU, GNAQ / Fold change vs veh, GNAQ / RFU, CDK5R1 / Fold change vs veh, CDK5R1 / RFU, ZRANB3 / Fold change vs veh, ZRANB3 / RFU, CUL4A / Fold change vs veh, CUL4A / RFU, CCNY / Fold change vs veh, CCNY / RFU, UFL1 / Fold change vs veh, UFL1 / RFU, COG3 / Fold change vs veh, COG3 / RFU, DIAPH2 / Fold change vs veh, DIAPH2 / RFU, SKA2 / Fold change vs veh, SKA2 / RFU, AFF3 / Fold change vs veh, AFF3 / RFU, LMF1 / Fold change vs veh, LMF1 / RFU, IPO11 / Fold change vs veh, IPO11 / RFU, DFFB / Fold change vs veh, DFFB / RFU, FOXP1 / Fold change vs veh, FOXP1 / RFU, CARD8 / Fold change vs veh, CARD8 / RFU, STRN3 / Fold change vs veh, STRN3 / RFU, ADK / Fold change vs veh, ADK / RFU, RASSF2 / Fold change vs veh, RASSF2 / RFU, WIPF1 / Fold change vs veh, WIPF1 / RFU, LARP1B / Fold change vs veh, LARP1B / RFU, RASA1 / Fold change vs veh, RASA1 / RFU, RB1 / Fold change vs veh, RB1 / RFU, PPFIA1 / Fold change vs veh, PPFIA1 / RFU, MAT2A / Fold change vs veh, MAT2A / RFU, CCT5 / Fold change vs veh, CCT5 / RFU, WDR92 / Fold change vs veh, WDR92 / RFU, CUX1 / Fold change vs veh, CUX1 / RFU, TTC7A / Fold change vs veh, TTC7A / RFU, TMEM135 / Fold change vs veh, TMEM135 / RFU, DEPTOR / Fold change vs veh, DEPTOR / RFU, CPM / Fold change vs veh, CPM / RFU, DNAJB6 / Fold change vs veh, DNAJB6 / RFU, CACNA2D3 / Fold change vs veh, CACNA2D3 / RFU, DTX4 / Fold change vs veh, DTX4 / RFU, TFCP2 / Fold change vs veh, TFCP2 / RFU, GMCL1 /// GMCL1P1 / Fold change vs veh, GMCL1 /// GMCL1P1 / RFU, AEBP2 / Fold change vs veh, AEBP2 / RFU, SNHG1 /// SNORD22 /// SNORD25 /// SNORD26 /// SNORD27 /// SNORD28 /// SNORD29 /// SNORD31 / Fold change vs veh, SNHG1 /// SNORD22 /// SNORD25 /// SNORD26 /// SNORD27 /// SNORD28 /// SNORD29 /// SNORD31 / Fold change (Aza/veh), C12orf56 (ProbeSet 11735607_a_at) / Fold change (ACY-1035/veh), C12orf56 (ProbeSet 11735607_a_at) / Fold change (Aza/veh), FGFR1OP (ProbeSet 11751329_s_at) / Fold change (ACY-1035/veh), FGFR1OP (ProbeSet 11751329_s_at) / Fold change (Aza/veh), VPS36 (ProbeSet 11739960_a_at) / Fold change (ACY-1035/veh), VPS36 (ProbeSet 11739960_a_at) / RFU SYPL1 (11715823_x_at) / Fold change /veh SYPL1 (11715823_x_at) / RFU IGFBP7 (11715501_s_at) / Fold change /veh IGFBP7 (11715501_s_at) / RFU REEP3 (11722064_at) / Fold change /veh REEP3 (11722064_at) / RFU IGLL1 (11728026_x_at) / Fold change /veh IGLL1 (11728026_x_at): dose or concentration left out as unconfirmed
Conditions: ProbeSet 11732154_at; LIST B

## Nc1ccc(-c2cccs2)cc1NC(=O)c1ccc2c(c1)cc(C1CC1)n2CCN1CCOCC1 [ACY-1035]
  Fold change vs veh, OGT: 1.05
